What was measured:
Tg2576 transgenic mice = details: cited from earlier work
[1] = convulsion and epilepsy induced by CRF administration; cited from earlier work
mice = test: Light/dark box test in mice (anxiolytic effect); format: in vivo; details: for Effective Dose: dose significantly prolonging time spent in the light box vs vehicle, oral administration one hour prior to test, male Balb/c mice; for anxiolytic effect in the light/dark box test in mice: statistically significant at 30 mg/kg (oral administration)
Description: <Evaluation of Anxiolytic Effect in Light/Dark Box Test in Mice>
The light/dark box test in mice was carried out according to a modified method of Belzung C., Misslin R., and Vogel E. et al. (Reference; Behavioural effects of the benzodiazepine receptor partial agonist RO16-6028 in mice, Psychopharmacology, 97, 388-391, 1989). The test apparatus used in this test was a light/dark box including a covered black acrylic box (dark box; 15×10×20 cm), a white acrylic box with top opened (light box; 15×20×20 cm) and a black acrylic tunnel (10×7×4.5 cm) that connects the dark box and the light box and enables a mouse to freely move back and forth between the dark box and light box. In this test apparatus, however, a transparent acrylic plate was used for the front side (20×20 cm) and back side (20×20 cm) of the light box to allow observation of the behavior. After setting illumination so that the light intensity of the floor surface of the light box became 150 Lux, 5-week-old male Balb/c mice (purchased from Nihon Charles River) were introduced into the dark box and the test was started. In the test, the tested compound was suspended in 5% dimethyl sulfoxide, 5% Cremopor EL and 90% physiological saline and orally administered to the test animals one hour prior to the start of the test.
The time spent in the light box was measured as an index of the anxiolytic effect, with “spend in the light box” defined as the state in which all limbs of the mice were on the floor of the light box. […] The statistical significance between the vehicle-treated group and the test compound-treated groups was analyzed by one-way layout analysis of variance followed by Dunnett multiple comparison when multiple doses were set for the same test, and by the Mann-Whitney U test when only one dose was set.

[2] = in vivo; cited from earlier work
[3] = in vivo; cited from earlier work; remark: listed apart in the source
[4] = in vivo; cited from earlier work; remark: listed apart in the source
human CRFR1 = human CRFR1 (Homo sapiens (Human), UniProt P34998); test: CRFR1 Binding Test; details: competition with 100 pM 125I-CRF, SPA method, membrane fraction of human CRFR1-expressing HEK293 cells; read-out: CRF1 receptor binding capacity IC50;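 also: nonspecific binding was determined with a 4,000-fold excess of unlabelled sauvagine and subtracted from every reading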
IBS patients = details: cited from earlier work
ethanol withdrawal rats = details: cited from earlier work
[5] = in vivo; cited from earlier work; remark: listed apart in the source
[6] = in vivo; cited from earlier work; remark: listed apart in the source
[7] = Journal of Psychiatric Research, 34:171-181 (2000); cited from earlier work
rats [8] = details: cited from earlier work
high-anxiety rats = details: particularly in high-anxiety rats; cited from earlier work
rats [9] = details: cited from earlier work; remark: listed apart in the source
rats [10] = details: cited from earlier work; remark: listed apart in the source
rats [11] = details: cited from earlier work; remark: listed apart in the source
[12] = pretreatment; cited from earlier work
[13] = in vivo; cited from earlier work; remark: listed apart in the source
[14] = in vivo; cited from earlier work; remark: listed apart in the source

Sequence of human CRFR1 (P34998 24-415): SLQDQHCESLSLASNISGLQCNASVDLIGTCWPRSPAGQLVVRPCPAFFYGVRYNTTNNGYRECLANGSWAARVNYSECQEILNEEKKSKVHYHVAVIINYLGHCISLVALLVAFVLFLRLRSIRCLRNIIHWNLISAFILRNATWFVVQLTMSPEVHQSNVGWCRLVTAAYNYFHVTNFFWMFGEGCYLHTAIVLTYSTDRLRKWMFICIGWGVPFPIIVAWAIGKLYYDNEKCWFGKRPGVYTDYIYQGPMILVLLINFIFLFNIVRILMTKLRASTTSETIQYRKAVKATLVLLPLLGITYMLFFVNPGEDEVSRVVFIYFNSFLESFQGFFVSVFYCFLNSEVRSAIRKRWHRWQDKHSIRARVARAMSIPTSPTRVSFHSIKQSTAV

Compound	IC50 (human CRFR1) [nM]	Effective Dose (mice) [mg/kg]	anxiolytic effect in the light/dark box test in mice (mice)	further results
CCCN(CC1CC1)c1nc(C)nc(Nc2c(Cl)cc(Cl)cc2Cl)c1Cl [NBI27914]	–	–	–	increased levels of Aβ and Aβ plaque deposition induced by stress (Tg2576 transgenic mice): inhibits increased levels of Aβ and Aβ plaque deposition induced by stress; limbic system seizure [1]: inhibits limbic system seizure
COCc1cc(OC)c(-c2csc3c(N(CC4CCOCC4)CC4CC4)c(C)nn23)c(OC)c1 [Example 4, N-(Cyclopropylmethyl)-3-[2,6-dimethoxy-4-(methoxymethyl)phenyl]-6-methyl-N-(tetrahydro-2H-pyran-4-ylmethyl)pyrazolo[5,1-b][1,3]thiazole-7-amine]	–	30	excellent anxiolytic effects	–
CCCCN(CC)c1nc(C)nc2c1c(C)c(C)n2-c1c(C)cc(C)cc1C [antalarmin]	–	–	–	stress-induced hippocampal tau phosphorylation [2]: inhibits stress-induced hippocampal tau phosphorylation; hypertension induced by intraventricular administration of CRF [3]: inhibits hypertension induced by intraventricular administration of CRF
CCN(c1nc(C)cc(N2CC=C(c3cccc(F)c3)CC2)n1)c1ccc(C(C)C)cc1SC [CRA1000]	–	–	–	stress-related reduction in food intake [4]: inhibit stress-related reduction in food intake
α-helical CRF (9-41)	–	–	–	colon intestinal hyperkinesis, abdominal pain and anxiety (IBS patients): inhibits colon intestinal hyperkinesis in IBS patients and reduces abdominal pain and anxiety; anxiety behavior (ethanol withdrawal rats): inhibits anxiety behavior; stress-related reduction in food intake [4]: inhibit stress-related reduction in food intake; stress-related increase in intracerebral amyloid-β [5]: suppresses stress-related increase in intracerebral amyloid-β; ischemic and excitotoxic encephalopathy [6]: inhibits ischemic and excitotoxic encephalopathy
CCCN(CCC)c1cc(C)nc2c(-c3cnc(N(C)C)cc3C)c(C)nn12 [Example R121919]	–	–	–	ameliorating depression, depressive symptoms, anxiety [7]: effective for ameliorating depression, depressive symptoms, anxiety; anti-anxiety action (rats [8]): exhibits an anti-anxiety action; stress-related sleep disorder (high-anxiety rats): inhibits stress-related sleep disorder
CCCN(c1ccccn1)c1c(OC)nn2c(-c3c(OC)cc(COC)cc3OC)csc12 [Example 86, 3-[2,6-Dimethoxy-4-(methoxymethyl)phenyl]-6-methoxy-N-propyl-N-pyridin-2-ylpyrazolo[5,1-b][1,3]thiazole-7-amine]	33	–	–	–
CCCCN(CC)c1nc(C)nc2c1c(C)cn2-c1c(C)cc(C)cc1C [CP-154526]	–	–	–	anti-depressant and anti-anxiety actions (rats [9]): exhibits anti-depressant and anti-anxiety actions; recurrence of stress-elicited alcohol-seeking behavior (rats [10]): inhibits recurrence of stress-elicited alcohol-seeking behavior; recurrence of stress-elicited drug (heroin, cocaine)-seeking behavior (rats [11]): inhibits recurrence of stress-elicited drug (heroin, cocaine)-seeking behavior; naltrexone-induced morphine withdrawal symptoms [12]: inhibits naltrexone-induced morphine withdrawal symptoms; gastric emptying retardation after surgery [13]: recovers gastric emptying retardation after surgery; learning disability following acute stress [14]: inhibits learning disability following acute stress

Now from value to compound, other results behind:

IC50 (human CRFR1) [nM]	Compound	Effective Dose (mice) [mg/kg]	anxiolytic effect in the light/dark box test in mice (mice)	further results
45	COCc1cc(OC)c(-c2csc3c(N(CC4CC4)CC4C5COCC54)c(OC)nn23)c(OC)c1 (single isomer, unassigned; diastereomer 1) [Example 94, N-(Cyclopropylmethyl)-3-[2,6-dimethoxy-4-(methoxymethyl)phenyl]-6-methoxy-N-[3-oxabicyclo[3.1.0]hex-6-ylmethyl]-pyrazolo[5,1-b][1,3]thiazole-7-amine (diastereomer 1)]	30	excellent anxiolytic effects	–
26	CCCN(c1c(OC)nn2c(-c3c(OC)cc(COCC)cc3OC)csc12)C1CCOC1 (stereo not drawn) [Example 46, 3-[4-(Ethoxymethyl)-2,6-dimethoxyphenyl]-6-methoxy-N-propyl-N-(tetrahydrofuran-3-yl)pyrazolo[5,1-b][1,3]thiazole-7-amine]	30	excellent anxiolytic effects	–
51	CCCN(c1c(OC)nn2c(-c3c(OC)cc(COC)cc3OC)csc12)C1CCOC1 (stereo not drawn) [Example 14, 3-[2,6-Dimethoxy-4-methoxymethylphenyl]-6-methoxy-N-propyl-N-(tetrahydrofuran-3-yl)pyrazolo[5,1-b][1,3]thiazole-7-amine]	30	excellent anxiolytic effects	–
92	COCc1cc(OC)c(-c2csc3c(N(CC4CC4)CC4COCOC4)c(OC)nn23)c(OC)c1 [Example 11, Cyclopropylmethyl-3[3-(2,6-dimethoxy-4-methoxymethyl-phenyl)-6-methoxy-pyrazolo[5,1-b][1,3]thiazol-7-yl]-[1,3]dioxan-5-ylmethyl-amine]	30	excellent anxiolytic effects	–
35	CCOCc1cc(OC)c(-c2csc3c(N(CCCOC)CC4CC4)c(OC)nn23)c(OC)c1 [Example 42, N-(Cyclopropylmethyl)-3-[4-(ethoxymethyl)-2,6-dimethoxyphenyl]-6-methoxy-N-(3-methoxypropyl)pyrazolo[5,1-b][1,3]thiazole-7-amine]	30	excellent anxiolytic effects	–
94	CCCN(c1c(OC)nn2c(-c3c(OC)cc(COC)cc3OC)c(C)sc12)C1CCOCC1 [Example 7, [3-(2,6-Dimethoxy-4-methoxymethyl-phenyl)-6-methoxy-2-methyl-pyrazolo[5,1-b][1,3]thiazol-7-yl]-propyl-(tetrahydro-pyran-4-yl)-amine]	–	–	–
45	COCc1cc(OC)c(-c2csc3c(N(CC(C)C)C4CCOC4)c(OC)nn23)c(OC)c1 (stereo not drawn) [Example 43, [3-(2,6-Dimethoxy-4-methoxymethylphenyl)-6-methoxy-pyrazolo[5,1-b][1,3]thiazol-7-yl]-isobutyl-(tetrahydrofuran-3-yl)-amine]	–	–	–
63	CCCCN(c1c(OCC)nn2c(-c3c(OC)cc(COC)cc3OC)csc12)C1CCOCC1 [Example 82, N-Butyl-3-[2,6-dimethoxy-4-(methoxymethyl)phenyl]-6-ethoxy-N-(tetrahydro-2H-pyran-4-yl)-pyrazolo[5,1-b][1,3]thiazole-7-amine]	–	–	–
32	CCOCc1cc(OC)c(-c2csc3c(N(CC4CCC4)C4CCOC4)c(OC)nn23)c(OC)c1 (stereo not drawn) [Example 47, N-(Cyclobutylmethyl)-3-[4-(ethoxymethyl)-2,6-dimethoxyphenyl]-6-methoxy-N-(tetrahydrofuran-3-yl)pyrazolo[5,1-b][1,3]thiazole-7-amine]	–	–	–
89	COc1cc(C#N)cc(OC)c1-c1csc2c(N(CC3CC3)CC3C4COCC43)c(OC)nn12 (single isomer, unassigned; diastereomer 1) [Example 100]	–	–	–
